Values of other authors as cited in patent US12311004B2, “Ophthalmic formulations and methods of use” (VISION SOLUTIONS, LLC, priority 2023, dated 2025).

Assays:
[1] = oral, cat
FHV-1 = conditions: low concentrations, in vitro

In the case of `NCCCC[C@H](N)C(=O)O` [L-lysine], the “daily intake at which arginine deficiency is likely to occur” value [1] is given as “exceeding 80 g/kg” and the “effect on the replication kinetics of the virus” value (FHV-1) is given as “no effect”.
